This note sets out measurements from patent US5068064A, “N-substituted lauramides, their preparation and compositions in which they are present” (Sanofi, priority 1989, dated 1991).

Series [1] deals with Staphylococcus aureus CIP 53154. In words: Minimum bactericidal concentration, first method (30 min contact), S. aureus. The series is classed as cell-based. To be noted: CIP53154, 0.5 h, contact time 30 minutes. An excerpt:
(§1) In the two methods, a bacterial inoculum is brought into contact with different dilutions of the product for a determined period of time.
(§2) When the contact period has ended, an aliquot of the mixture of bacterial suspension and product is taken and brought into contact with an agent for neutralizing the bacterial activity of the mixture, either in a solid medium or in a liquid medium. The bactericidal activity of the product, expressed either as a concentration or as a percentage of active principle, corresponds to an absence of bacterial growth.
(§3) The first method makes it possible to define a minimum bactericidal concentration (MBC) or minimum fungicidal concentration (MFC), expressed in μg/ml. The contact time between product and bacterial suspension is 30 minutes. The neutralizer is included in agar.
(§4) The CIP bacterial strains chosen for the study, which are available from the Institut Pasteur, are:
(§5) 1. Staphylococcus aureus
(§6) The strains are maintained on Tryptic Soy Agar® (TSA) marketed by Difco.
(§7) After 24 hours of culture at 37° C., the microbial growth is harvested with the aid of glass beads and 10 ml of diluent containing 1 g of tryptone and 8.5 g of sodium chloride in 1000 ml of distilled water. The suspension formed is shaken and the percentage transmission of light at 620 nm is measured in a spectrophotometer:
(§8) The bacterial inoculum corresponds to a 1:20 dilution of this bacterial suspension.
(§9) Plates containing cupules receive different dilutions of the test product. These dilutions of the test product are brought into contact with the different bacterial suspensions using a multiple site inoculator. After a contact time of 30 minutes, aliquots are transferred with this inoculator to the surface of an agar medium (TSA) placed in Petri dishes containing an activity neutralizer, namely 20 g of lubrol W, 2.5 g of Tween 80, 2.5 g of sodium thiosulfate and 1% of egg yolk in 1000 ml of TSA (Difco). A control for the efficacy of the neutralizer is prepared for each test product by depositing an aliquot of the dilution of the test product on the surface of the culture medium. After drying, the corresponding inoculum is deposited in the same place. An inoculum control is prepared on agar medium with and without neutralizer. The results are read off after 48 hours of incubation at 37° C.
(§10) They indicate the minimum bactericidal concentrations (MBC) for strains 1, 2, 3 and 4 and the minimum fungicidal concentrations (MFC) for strain 5.

The test system of series [2] is Enterococcus faecium CIP 5855. In words: Minimum bactericidal concentration, first method (30 min contact), E. faecium. To be noted: CIP5855, 0.5 h, contact time 30 minutes. The series is classed as cell-based.
Description: as §1, §2, §3, §4, §6, §7, §8, §9, §10

Series [3] deals with Escherichia coli CIP 54127. As to the kind of experiment: Minimum bactericidal concentration, first method (30 min contact), E. coli. The series is classed as cell-based. To be noted: CIP54127, 0.5 h, contact time 30 minutes.
Description: as §1, §2, §3, §4
(§11) 3. Escherichia coli CIP 54127
as §6, §7, §8, §9, §10

Series [4] concerns Pseudomonas aeruginosa CIP A22. As to the kind of experiment: Minimum bactericidal concentration, first method (30 min contact), P. aeruginosa. Type of series: cell-based. To be noted: CIPA22, 0.5 h, contact time 30 minutes.
Description: as §1, §2, §3, §4
4. Psuedomonas aeruginosa
as §6, §7, §8, §9, §10

For series [5], the system named is Candida albicans CIP 1180. As to the kind of experiment: Minimum fungicidal concentration, first method (30 min contact), C. albicans. Type of series: cell-based. To be noted: CIP1180, 0.5 h, contact time 30 minutes.
Description: as §1, §2, §3, §9
The antifungal activity of the products according to the invention was also determined using the method described above. A representative strain of yeast was selected for the study: Candida albicans CIP 1180 (strain 5).
This is maintained on Sabouraud's Dextrose Agar marketed by Difco. The technique is identical to that described for studying the antibacterial activity. After 48 hours of culture at 37° C., the microbial growth is harvested with the aid of glass beads and 5 ml of diluent containing 1 g of tryptone and 8.5 g of sodium chloride in 1000 ml of distilled water; a further 5 ml of the diluent are then added. This suspension gives a percentage transmission of light at 620 nm of 2 to 3% in a spectrophotometer.
The inoculum corresponds to a 1:10 dilution of this microbial suspension. A 1:100 dilution of this suspension, observed between slide and cover glass through a No. 40 microscope objective, must show 10 cells per field, which corresponds to 1,000,000 yeasts per ml.
as §10

The test system of series [6] is Staphylococcus aureus CIP 53154. In words: Percentage of bactericidal active principle, second method (5 min contact), S. aureus. The following applies: destruction of 99.99%. Type of series: cell-based.
Description: as §1, §2
(§12) The second method makes it possible to define a percentage of bactericidal or fungicidal active principle by means of a simplified and automated adaptation of Afnor standards NF T 72-150 and NF T 72-170. In this method, the bactericidal activity of the product is determined with and without interfering substances. It is based on assessing the destruction of 99.99% of the initial bacteria by the product in 5 minutes. The interfering substances are of the protein type and are chosen for the actual conditions of application of this type of product. The contact time between product and bacterial suspension is 5 minutes, the neutralization step is 10 minutes and subculture is effected in a liquid medium.
(§13) The chosen bacterial strains are:
as §5, §6
(§14) The strains are harvested in a manner identical to the first method; these suspensions contain between 1.10^8 and 3.10^8 cells per milliliter. Appropriate dilutions make it possible to have a suspension containing 2 to 6.10^3 cells per milliliter.
(§15) The experiment is performed in microtiter plates; it comprises two steps. The first step, called the preliminary test, checks that the product is indeed neutralized. In the test proper, the different dilutions of the product are brought into contact with 2 to 6.10^3 cells per milliliter of the bacterial suspension in the second row of the microtiter plate. After a contact time of 5 minutes, an aliquot is transferred to the third row containing the neutralizer adapted to the product and to the strain. After a contact time of 10 minutes, aliquots are transferred to the last 5 rows containing Tryptic Soy Broth® (TSB) from Difco.
(§16) The interfering substances tested are a mixture of albumin and yeast extract. In the first row of the microplate, these proteins are brought into contact for 5 minutes with the different dilutions of the product. After this step, the same principle as above is applied: 5 minutes of contact with the germ, 10 minutes of contact with the neutralizer, transfer to TSB.

For series [7], the system named is Enterococcus faecium CIP 5855. As to the kind of experiment: Percentage of bactericidal active principle, second method (5 min contact), E. faecium. Type of series: cell-based. The following applies: destruction of 99.99%.
Description: as §1, §2, §12, §13, §6, §14, §15, §16

The subject of series [8] is Escherichia coli CIP 54127. In words: Percentage of bactericidal active principle, second method (5 min contact), E. coli. Type of series: cell-based. The following applies: destruction of 99.99%.
Description: as §1, §2, §12, §13, §11, §6, §14, §15, §16

Series [9] deals with Pseudomonas aeruginosa CIP A22. As to the kind of experiment: Percentage of bactericidal active principle, second method (5 min contact), P. aeruginosa. The series is classed as cell-based. The following applies: destruction of 99.99%.
Description: as §1, §2, §12, §13
4. Pseudomonas aeruginosa
as §6, §14, §15, §16

Series [10] deals with Candida albicans CIP 1180. As to the kind of experiment: Percentage of fungicidal active principle, second method (5 min contact), C. albicans. The series is classed as cell-based.
Description: as §1, §2, §12, §15, §16
The antifungal activity of the products according to the invention was also determined with and without interfering substances using the method described above. The same strain was used as for the first technique, namely Candida albicans CIP 1180. It is harvested in an identical manner to that described in the first method.

The subject of series [11] is Mycobacterium smegmatis CIP 7326. As to the kind of experiment: Percentage of bactericidal active principle, second method (5 min contact), M. smegmatis. The series is classed as cell-based. To be noted: destruction of 99.99%.
Description: as §1, §2, §12, §13
5. Mycobacterium smegmatis
as §6, §14, §15, §16

The nature of another series: Product solubility. The following applies: water.
[12] abbreviates: Simple: without interfering substances, * activity limited to the zone indicated.
Setting [13] is: with proteins as interfering substances.
Setting [14] is: Simple: without interfering substances.

The structures appear in SMILES notation. Values after ≈ are worked out from the molar mass of the structure shown. Counter-ions that a name gives are not always drawn. Where only a bound is given, the exact number is not on record here.

In the case of `CCCCCCCCCCCC(=O)NCCN(C)Cc1ccccc1` [SR 45525], the minimum bactericidal concentration (MBC) came out at 50 µg/mL (≈ 144 µM) in [1], 10 µg/mL (≈ 28.9 µM) in series [2], 10 µg/mL (≈ 28.9 µM) in series [3] and 50 µg/mL (≈ 144 µM) in series [4]. Besides, the MFC in series [5] amounted to 50 µg/mL (≈ 144 µM). In addition, the “Bactericidal activity, results in percentage of active principle, S. aureus” value in [6] (setting [12]) was 0.05 percentage of active principle; in series [6] (setting [13]) it was 0.5 percentage of active principle. Also, the “Bactericidal activity, results in percentage of active principle, E. faecium” value in series [7] (setting [14]) is 0.01 percentage of active principle; in series [7] (setting [13]), 0.5 percentage of active principle. Besides, the results for the “Bactericidal activity, results in percentage of active principle, E. coli” value in series [8] (setting [14]) and in series [8] (setting [13]) were 0.005 percentage of active principle and 0.1 percentage of active principle, respectively. The “Bactericidal activity, results in percentage of active principle, P. aeruginosa” value is 0.005 percentage of active principle in [9] (setting [14]) and 0.5 percentage of active principle in [9] (setting [13]). The entries for the “Fungicidal activity, results in percentage of active principle, C. albicans” value in series [10] (setting [14]) and in series [10] (setting [13]) were 0.05 percentage of active principle and 0.5 percentage of active principle, respectively. In addition, in [11] (setting [13]), the “Bactericidal activity, results in percentage of active principle, M. smegmatis” value is on record as 0.1 percentage of active principle. For the same compound, the solubility in “Product solubility” is > 50 mg/mL.

For the compound `CCCCCCCCCCCC(=O)NCCCN(C)Cc1ccccc1` [SR 45583 A, N-(3-Benzylmethylaminopropyl)lauramide hydrochloride], the minimum bactericidal concentration (MBC) turned out to be 50 µg/mL in series [1], 10 µg/mL in series [2], 10 µg/mL in series [3] and 50 µg/mL in [4]. This compound also showed an MFC in series [5] of 50 µg/mL. Besides, the “Bactericidal activity, results in percentage of active principle, S. aureus” value in series [6] (setting [12]) is reported as 0.05 percentage of active principle; in series [6] (setting [13]), 0.5 percentage of active principle. For the same compound, the “Bactericidal activity, results in percentage of active principle, E. faecium” value is 0.01 percentage of active principle in [7] (setting [14]) and 0.05 percentage of active principle in [7] (setting [13]). The “Bactericidal activity, results in percentage of active principle, E. coli” value was 0.05 percentage of active principle in [8] (setting [14]) and 0.1 percentage of active principle in [8] (setting [13]). For the same compound, the results for the “Bactericidal activity, results in percentage of active principle, P. aeruginosa” value in [9] (setting [14]) and in [9] (setting [13]) were 0.01 percentage of active principle and 0.5 percentage of active principle, respectively. In addition, the results for the “Fungicidal activity, results in percentage of active principle, C. albicans” value in series [10] (setting [14]) and in series [10] (setting [13]) were 0.05 percentage of active principle and 0.1 percentage of active principle, respectively. Further, the entries for the “Bactericidal activity, results in percentage of active principle, M. smegmatis” value in series [11] (setting [12]) and in series [11] (setting [13]) were 0.01 percentage of active principle and 0.05 percentage of active principle, respectively. The solubility in “Product solubility” was > 50 mg/mL.

For `CCCCCCCCCCCC(=O)NCCN1CCC(Cc2ccccc2)CC1.Cl` [SR 44944 A, N-[2-(4-Benzylpiperidino)ethyl]lauramide hydrochloride], the MBC was found to be 10 µg/mL in series [1], 10 µg/mL in [2], 10 µg/mL in [3] and 50 µg/mL in [4]. For the same compound, the MFC in series [5] turned out to be 10 µg/mL. The “Bactericidal activity, results in percentage of active principle, S. aureus” value in [6] (setting [12]) is reported as < 0.01 percentage of active principle; in series [6] (setting [13]), 0.1 percentage of active principle. The “Bactericidal activity, results in percentage of active principle, E. faecium” value in series [7] (setting [14]) was < 0.01 percentage of active principle; in [7] (setting [13]), 0.03 percentage of active principle. The entries for the “Bactericidal activity, results in percentage of active principle, E. coli” value in series [8] (setting [14]) and in [8] (setting [13]) were 0.01 percentage of active principle and < 0.01 percentage of active principle, respectively. Further, the “Bactericidal activity, results in percentage of active principle, P. aeruginosa” value in series [9] (setting [14]) is < 0.01 percentage of active principle; in [9] (setting [13]), 0.25 percentage of active principle. For the same compound, the “Fungicidal activity, results in percentage of active principle, C. albicans” value in series [10] (setting [14]) was 0.01 percentage of active principle; in series [10] (setting [13]), 0.06 percentage of active principle. In addition, the results for the “Bactericidal activity, results in percentage of active principle, M. smegmatis” value in series [11] (setting [12]) and in series [11] (setting [13]) were > 0.5 percentage of active principle and 0.06 percentage of active principle, respectively.
